Test results taken from patent US8404679B2, “Pyrrolidine derivatives as NK2 receptor antagonists” (Hoffmann-La Roche Inc., priority 2008, dated 2013).

Each compound was assayed against T1, human NK2 receptor (Homo sapiens, UniProt P21452) (assay: [3H]SR48968 competition binding assay). Conditions: [3H]SR48968 displacement, membranes of CHO cells stably expressing recombinant human NK2 receptor; Ki from IC50 by Cheng-Prussoff.
T1 construct: purchased Perkin Elmer biosignal Inc. 6110510
T1 sequence (P21452 1-398): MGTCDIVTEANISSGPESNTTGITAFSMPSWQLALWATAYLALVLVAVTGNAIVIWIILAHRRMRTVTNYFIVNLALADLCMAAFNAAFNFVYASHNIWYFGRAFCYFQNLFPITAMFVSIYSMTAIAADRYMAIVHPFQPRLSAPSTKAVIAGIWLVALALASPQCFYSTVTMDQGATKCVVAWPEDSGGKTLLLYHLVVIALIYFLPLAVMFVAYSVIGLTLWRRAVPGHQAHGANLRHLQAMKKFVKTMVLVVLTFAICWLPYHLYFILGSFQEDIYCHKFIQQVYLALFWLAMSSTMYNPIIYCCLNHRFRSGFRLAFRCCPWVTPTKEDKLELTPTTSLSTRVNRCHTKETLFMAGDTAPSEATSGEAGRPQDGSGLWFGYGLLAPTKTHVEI
Method: [^3H]SR48968 Competition Binding Assay
hNK2 receptor binding experiment were performed using [^3H]SR48968 (Catalog No. TRK398, specific activity: 27.0 Ci/mmol, Amersham, GE Healthcare UK limited, Buckinghamshire, UK) and membrane isolated from CHO cells stably expressing recombinant human NK2 receptor (product No. 6110510, Perkin Elmer biosignal Inc., Shelton, Conn., USA). After thawing, the membrane homogenates were centrifuged at 48,000×g for 10 min at 4° C., the pellets were resuspended in the 50 mM Tris-HCl, 3 mM MnCl2, 4 μg/mL Chymostatin, 0.04% BSA binding buffer at pH 7.4 to a final assay concentration of 6.5 μg protein/well. For inhibition experiments, membranes were incubated with [^3H]SR48968 at a concentration equal to KD value of radioligand and 10 concentrations of the inhibitory compound (0.0003-10 μM) (in a total reaction volume of 500 μl) for 75 min at room temperature (RT). At the end of the incubation, membranes were filtered onto unitfilter (96-well white microplate with bonded GF/C filter preincubated 1 h in 0.3% polyethylenimine, Packard BioScience, Meriden, Conn.) with a Filtermate 196 harvester (Packard BioScience) and washed 4 times with ice-cold 50 mM Tris-HCl, pH 7.4 buffer. Nonspecific binding was measured in the presence of 10 μM 1-{2-[(R)-3-(3,4-dichloro-phenyl)-1-(3,4,5-trimethoxy-benzoyl)-pyrrolidin-3-yl]-ethyl}-4-phenyl-piperidine-4-carboxylic acid amide. The radioactivity on the filter was counted (5 min) on a Packard Top-count microplate scintillation counter with quenching correction after addition of 45 μl of microscint 40 (Canberra Packard S. A., Zürich, Switzerland) and shaking for 1 h. Inhibition curves were fitted according to the Hill equation: y=100/(1+(x/IC50)^nH), where nH=slope factor using Excel-fit 4 software (Microsoft). IC50 values were derived from the inhibition curve and the affinity constant (Ki) values were calculated using the Cheng-Prussoff equation Ki=IC50/(1+[L]/KD) where [L] was the concentration of radioligand and KD was its dissociation constant at the receptor, derived from the saturation isotherm.

Structure (SMILES) | Ki [nM]
CN(C(=O)c1ccc2c(c1)OC(F)(F)O2)[C@@H]1CN(C(=O)N2CCN(S(C)(=O)=O)CC2)C[C@H]1c1ccc(Cl)c(Cl)c1 (racemic) [Example 28, rac-2,2-Difluoro-benzo[1,3]dioxole-5-carboxylic acid [(3S,4R)-4-(3,4-dichloro-phenyl)-1-(4-methanesulfonyl-piperazine-1-carbonyl)-pyrrolidin-3-yl]-methyl-amide] | 2.04
CN(C(=O)c1ccc(-n2cccc2)cc1)[C@@H]1CN(C(=O)N2CCN(S(C)(=O)=O)CC2)C[C@H]1c1ccc(Cl)c(Cl)c1 (racemic) [Example 30, rac-N-[(3S,4R)-4-(3,4-Dichloro-phenyl)-1-(4-methanesulfonyl-piperazine-1-carbonyl)-pyrrolidin-3-yl]-N-methyl-4-pyrrol-1-yl-benzamide] | 4.59
CN(C(=O)c1ccc2c(c1)CCO2)[C@@H]1CN(C(=O)N2CCN(S(C)(=O)=O)CC2)C[C@H]1c1ccc(Cl)c(Cl)c1 (racemic) [Example 31, rac-2,3-Dihydro-benzofuran-5-carboxylic acid [(3S,4R)-4-(3,4-dichloro-phenyl)-1-(4-methanesulfonyl-piperazine-1-carbonyl)-pyrrolidin-3-yl]-methyl-amide] | 14.8
CN(C(=O)c1ccc(F)c(Cl)c1)[C@@H]1CN(C(=O)N2CCN(S(C)(=O)=O)CC2)C[C@H]1c1ccc(Cl)c(Cl)c1 (racemic) [Example 32, rac-3-Chloro-N-[(3S,4R)-4-(3,4-dichloro-phenyl)-1-(4-methanesulfonyl-piperazine-1-carbonyl)-pyrrolidin-3-yl]-4-fluoro-N-methyl-benzamide] | 4.57
COc1ccc(C(=O)N(C)[C@@H]2CN(C(=O)N3CCN(S(C)(=O)=O)CC3)C[C@H]2c2ccc(Cl)c(Cl)c2)cc1Cl (racemic) [Example 33, rac-3-Chloro-N-[(3S,4R)-4-(3,4-dichloro-phenyl)-1-(4-methanesulfonyl-piperazine-1-carbonyl)-pyrrolidin-3-yl]-4-methoxy-N-methyl-benzamide] | 8.57
CN(C(=O)c1ccc2nccnc2c1)[C@@H]1CN(C(=O)N2CCN(S(C)(=O)=O)CC2)C[C@H]1c1ccc(Cl)c(Cl)c1 (racemic) [Example 34, rac-Quinoxaline-6-carboxylic acid [(3S,4R)-4-(3,4-dichloro-phenyl)-1-(4-methanesulfonyl-piperazine-1-carbonyl)-pyrrolidin-3-yl]-methyl-amide] | 76.7
CC(C#N)c1cccc(C(=O)N(C)[C@@H]2CN(C(=O)N3CCN(S(C)(=O)=O)CC3)C[C@H]2c2ccc(Cl)c(Cl)c2)c1 (mixture of isomers) [Example 35, rac-3-(Cyano-methyl-methyl)-N-[(3S,4R)-4-(3,4-dichloro-phenyl)-1-(4-methanesulfonyl-piperazine-1-carbonyl)-pyrrolidin-3-yl]-N-methyl-benzamide] | 28.5
CN(C(=O)c1ccc(F)c(C(F)(F)F)c1)[C@@H]1CN(C(=O)N2CCN(S(C)(=O)=O)CC2)C[C@H]1c1ccc(Cl)c(Cl)c1 (racemic) [Example 36, rac-N-[(3S,4R)-4-(3,4-Dichloro-phenyl)-1-(4-methanesulfonyl-piperazine-1-carbonyl)-pyrrolidin-3-yl]-4-fluoro-N-methyl-3-trifluoromethyl-benzamide] | 3.59
COc1ccc(C(=O)N(C)[C@@H]2CN(C(=O)N3CCN(S(C)(=O)=O)CC3)C[C@H]2c2ccc(Cl)c(Cl)c2)cc1 (racemic) [Example 37, rac-N-[(3S,4R)-4-(3,4-Dichloro-phenyl)-1-(4-methanesulfonyl-piperazine-1-carbonyl)-pyrrolidin-3-yl]-4-methoxy-N-methyl-benzamide] | 8.89
CN(C(=O)c1cc(C(F)(F)F)ccc1F)[C@@H]1CN(C(=O)N2CCN(S(C)(=O)=O)CC2)C[C@H]1c1ccc(Cl)c(Cl)c1 (racemic) [Example 38, rac-N-[(3S,4R)-4-(3,4-Dichloro-phenyl)-1-(4-methanesulfonyl-piperazine-1-carbonyl)-pyrrolidin-3-yl]-2-fluoro-N-methyl-5-trifluoromethyl-benzamide] | 9.5
CCN(C(=O)c1ccc(OC)c(C(F)(F)F)c1)[C@@H]1CN(C(=O)N2CCN(S(C)(=O)=O)CC2)C[C@H]1c1ccc(Cl)c(Cl)c1 (racemic) [Example 39, rac-N-[(3S,4R)-4-(3,4-Dichloro-phenyl)-1-(4-methanesulfonyl-piperazine-1-carbonyl)-pyrrolidin-3-yl]-N-ethyl-4-methoxy-3-trifluoromethyl-benzamide] | 68.3
COc1ccc(C(=O)N(C)[C@@H]2CN(C(=O)c3ccc(C#N)cc3)C[C@H]2c2ccc(Cl)c(Cl)c2)cc1C(F)(F)F (racemic) [Example 41, rac-N-[(3S,4R)-1-(4-Cyano-benzoyl)-4-(3,4-dichloro-phenyl)-pyrrolidin-3-yl]-4-methoxy-N-methyl-3-trifluoromethyl-benzamide] | 1.45
COc1ccc(C(=O)N2C[C@@H](N(C)C(=O)c3ccc(OC)c(C(F)(F)F)c3)[C@H](c3ccc(Cl)c(Cl)c3)C2)cc1 (racemic) [Example 44, rac-N-[(3S,4R)-4-(3,4-Dichloro-phenyl)-1-(4-methoxy-benzoyl)-pyrrolidin-3-yl]-4-methoxy-N-methyl-3-trifluoromethyl-benzamide] | 4.24
COc1ccc(C(=O)N(C)[C@@H]2CN(C(=O)c3ccc(N(C)C)cc3)C[C@H]2c2ccc(Cl)c(Cl)c2)cc1C(F)(F)F (racemic) [Example 45, rac-N-[(3S,4R)-4-(3,4-Dichloro-phenyl)-1-(4-dimethylamino-benzoyl)-pyrrolidin-3-yl]-4-methoxy-N-methyl-3-trifluoromethyl-benzamide] | 2.98

More lines, now with the values ahead:

Ki [nM] | Structure (SMILES)
3.26 | COc1ccc(C(=O)N(C)[C@@H]2CN(C(=O)c3ccc(F)cc3)C[C@H]2c2ccc(Cl)c(Cl)c2)cc1C(F)(F)F (racemic) [Example 46, rac-N-[(3S,4R)-4-(3,4-Dichloro-phenyl)-1-(4-fluoro-benzoyl)-pyrrolidin-3-yl]-4-methoxy-N-methyl-3-trifluoromethyl-benzamide]
3.65 | COc1ccc(C(=O)N(C)[C@@H]2CN(C(=O)c3cccc(C#N)c3)C[C@H]2c2ccc(Cl)c(Cl)c2)cc1C(F)(F)F (racemic) [Example 47, rac-N-[(3S,4R)-1-(3-Cyano-benzoyl)-4-(3,4-dichloro-phenyl)-pyrrolidin-3-yl]-4-methoxy-N-methyl-3-trifluoromethyl-benzamide]
5.36 | COc1ccc(C(=O)N(C)[C@@H]2CN(C(=O)c3ccc4occc4c3)C[C@H]2c2ccc(Cl)c(Cl)c2)cc1C(F)(F)F (racemic) [Example 48, rac-N-[(3S,4R)-1-(Benzofuran-5-carbonyl)-4-(3,4-dichloro-phenyl)-pyrrolidin-3-yl]-4-methoxy-N-methyl-3-trifluoromethyl-benzamide]
2.53 | COc1ccc(C(=O)N(C)[C@@H]2CN(C(=O)c3cc(S(C)(=O)=O)ccc3F)C[C@H]2c2ccc(Cl)c(Cl)c2)cc1C(F)(F)F (racemic) [Example 49, rac-N-[(3S,4R)-4-(3,4-Dichloro-phenyl)-1-(2-fluoro-5-methanesulfonyl-benzoyl)-pyrrolidin-3-yl]-4-methoxy-N-methyl-3-trifluoromethyl-benzamide]
6.3 | COc1ccc(C(=O)N(C)[C@@H]2CN(C(=O)c3ccc(C(F)(F)F)cc3)C[C@H]2c2ccc(Cl)c(Cl)c2)cc1C(F)(F)F (racemic) [Example 50, rac-N-[(3S,4R)-4-(3,4-Dichloro-phenyl)-1-(4-trifluoromethyl-benzoyl)-pyrrolidin-3-yl]-4-methoxy-N-methyl-3-trifluoromethyl-benzamide]
3 | COc1ccc(C(=O)N(C)[C@@H]2CN(C(=O)c3ccncc3)C[C@H]2c2ccc(Cl)c(Cl)c2)cc1C(F)(F)F (racemic) [Example 51, rac-N-[(3S,4R)-4-(3,4-Dichloro-phenyl)-1-(pyridine-4-carbonyl)-pyrrolidin-3-yl]-4-methoxy-N-methyl-3-trifluoromethyl-benzamide]
